Reference: US20220112479A1, “COMPOUNDS STABILIZING AMYLASES IN LIQUIDS” (BASF SE, priority 2018, published 2022)

Columns and labels:
Assay type in all cases: biochemical
Amy2=Amplify = experiment: amylase storage stability in liquid formulation (pNP release from Ethyliden-blocked-pNPG7); set-up: key: % of activity in reference formulation at time 0; details: base formulation V., 2.0 wt % component (a), storage at 37° C.
Description: (§1) The storage stability of amylase was assessed at 37° C. Base test formulations were manufactured by making base formulations I to V by mixing the components according to Table 1. Amylases used: Amy1=Stainzyme, Amy2=Amplify, Amy3=Stainzyme Plus L (12L) The respective component (a) or comparative compound was added, if applicable, to the respective base formulation in amounts as indicated in Table 1. The amount of amylase as provided in Table 1 refers to active protein. Water was added to accomplish the balance to 100. […] Amylase activity at certain points in time as indicated in Table 2 was measured quantitatively by the release of the chromophore para-nitrophenol (pNP) from the substrate ([…]-blocked-pNPG7, Roche Applied Science 10880078103). The alpha-amylase degrades the substrate into smaller molecules and α-glucosidase (Roche Applied Science 11626329103), which is present in excess compared to the amylase, process these smaller products until pNP is released; the release of pNP, measured via an increase of absorption at 405 nm, is directly proportional to the amylase activity of the sample. Amylase standard: […] 120 L (Sigma 3403). […] The amylolytic activity values provided were calculated referring to the value determined in the reference formulation at the time 0. The nomenclature of formulations is as follows: the Roman number before the full stop characterizes the base formulation, the Arabian number the type of compound (A.# compound according to invention (component (a)); B.# comparative compound).

Amy1=Stainzyme = experiment: as above; set-up: key: % of activity in reference formulation at time 0; details: base formulation IV., 2.0 wt % component (a), storage at 37° C.
Description: as §1

Savinase Ultra 16.0L = target: T1, Savinase Ultra 16.0L (Lederbergia lenta, UniProt P29600); experiment: protease storage stability in liquid formulation (Suc-AAPF-pNA substrate); details: storage at 37° C.
T1 construct: purchased Sigma-Aldrich
T1 sequence (P29600 1-269): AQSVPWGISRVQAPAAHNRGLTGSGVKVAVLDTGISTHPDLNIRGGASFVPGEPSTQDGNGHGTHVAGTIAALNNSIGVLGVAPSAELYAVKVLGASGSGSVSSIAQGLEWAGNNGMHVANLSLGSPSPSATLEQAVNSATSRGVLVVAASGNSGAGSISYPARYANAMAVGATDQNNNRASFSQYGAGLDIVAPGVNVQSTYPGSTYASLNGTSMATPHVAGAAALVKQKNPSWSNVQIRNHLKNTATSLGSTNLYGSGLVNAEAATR
Description: (§2) Base test formulations were manufactured by making base formulations I to V by mixing the components according to Table 1.
Protease used: (S) Savinase Ultra 16.0L (CAS-No. 9014-01-1, EC-No. 232-752-2) was purchased from Sigma-Aldrich
(§3) The respective component (a) or comparative compound was added, if applicable, to the respective base formulation in amounts as indicated in Table 1.
The amount of protease as provided in Table 1 refers to active protein.
(§4) Water was added to accomplish the balance to 100.
Protease activity at certain points in time as indicated in Table 3 was be determined by employing Succinyl-Ala-Ala-Pro-Phe-p-nitroanilide (Suc-AAPF-pNA, short AAPF) as substrate. pNA is cleaved from the substrate molecule by proteolytic cleavage, resulting in release of yellow color of free pNA which was determined by measuring […]. Measurements were done at 20° C.
The proteolytic activity values provided in Table 3 were calculated referring to the value determined in the reference formulation at the time 0.
The nomenclature of formulations is as follows: the Roman number before the full stop characterizes the base formulation, the Arabian number the type of salt (A.#inventive salt (component (a)); B.# comparative compound). Zero (“0”): no salt, but diethylene glycol.

[1] = tested on: Amy3=Stainzyme Plus L (12L); experiment: amylase storage stability in liquid formulation (pNP release from Ethyliden-blocked-pNPG7); details: base formulation II., 1.5 wt % component (a), storage at 37° C.
Description: The storage stability of amylase was assessed at 37° C.
as §2
Amylases used: Amy1=Stainzyme, Amy2=Amplify, Amy3=Stainzyme Plus L (12L)
as §3
The amount of amylase as provided in Table 1 refers to active protein.
as §4
Amylase activity at certain points in time as indicated in Table 2 was measured quantitatively by the release of the chromophore para-nitrophenol (pNP) from the substrate (Ethyliden-blocked-pNPG7, Roche Applied Science 10880078103). The alpha-amylase degrades the substrate into smaller molecules and α-glucosidase (Roche Applied Science 11626329103), which is present in excess compared to the amylase, process these smaller products until pNP is released; the release of pNP, measured via an increase of absorption at 405 nm, is directly proportional to the amylase activity of the sample. Amylase standard: Termamyl 120 L (Sigma 3403).
The amylolytic activity values provided were calculated referring to the value determined in the reference formulation at the time 0.
The nomenclature of formulations is as follows: the Roman number before the full stop characterizes the base formulation, the Arabian number the type of compound (A.# compound according to invention (component (a)); B.# comparative compound).

O=C(CC(O)(CC(=O)OCc1ccccc1)C(=O)OCc1ccccc1)OCc1ccccc1 [A.8, Tribenzylcitrate]
amylase activity, referring to reference formulation at time 0 (Amy2=Amplify; 3 d): 93 | amylase activity, referring to reference formulation at time 0 (Amy2=Amplify; 7 d): 86 | amylase activity, referring to reference formulation at time 0 (Amy2=Amplify; 14 d): 80 | amylase activity, referring to reference formulation at time 0 (Amy2=Amplify; 21 d): 77 | amylase activity, referring to reference formulation at time 0 (Amy2=Amplify; 28 d): 66 | amylase activity, referring to reference formulation at time 0 (Amy2=Amplify; 42 d): 59 | amylase activity, referring to reference formulation at time 0 (Amy2=Amplify; T0): 98 | amylase activity, referring to reference formulation at time 0 (Amy1=Stainzyme; 3 d): 96 | amylase activity, referring to reference formulation at time 0 (Amy1=Stainzyme; 7 d): 92 | amylase activity, referring to reference formulation at time 0 (Amy1=Stainzyme; 14 d): 86 | amylase activity, referring to reference formulation at time 0 (Amy1=Stainzyme; 21 d): 81 | amylase activity, referring to reference formulation at time 0 (Amy1=Stainzyme; 28 d): 70 | amylase activity, referring to reference formulation at time 0 (Amy1=Stainzyme; 42 d): 59 | amylase activity, referring to reference formulation at time 0 (Amy1=Stainzyme; T0): 98 | protease activity, referring to reference formulation at time 0 (Savinase Ultra 16.0L; base formulation II., 1.5 wt % component (a), 3 d): 94 | protease activity, referring to reference formulation at time 0 (Savinase Ultra 16.0L; base formulation II., 1.5 wt % component (a), 7 d): 93 | protease activity, referring to reference formulation at time 0 (Savinase Ultra 16.0L; base formulation II., 1.5 wt % component (a), 14 d): 90 | protease activity, referring to reference formulation at time 0 (Savinase Ultra 16.0L; base formulation II., 1.5 wt % component (a), 21 d): 87 | protease activity, referring to reference formulation at time 0 (Savinase Ultra 16.0L; base formulation II., 1.5 wt % component (a), 28 d): 83 | protease activity, referring to reference formulation at time 0 (Savinase Ultra 16.0L; base formulation II., 1.5 wt % component (a), 42 d): 75 | protease activity, referring to reference formulation at time 0 (Savinase Ultra 16.0L; base formulation II., 1.5 wt % component (a), T0): 100 | protease activity, referring to reference formulation at time 0 (Savinase Ultra 16.0L; base formulation IV., 2.0 wt % component (a), 3 d): 96 | protease activity, referring to reference formulation at time 0 (Savinase Ultra 16.0L; base formulation IV., 2.0 wt % component (a), 7 d): 93 | protease activity, referring to reference formulation at time 0 (Savinase Ultra 16.0L; base formulation IV., 2.0 wt % component (a), 14 d): 88 | protease activity, referring to reference formulation at time 0 (Savinase Ultra 16.0L; base formulation IV., 2.0 wt % component (a), 21 d): 83 | protease activity, referring to reference formulation at time 0 (Savinase Ultra 16.0L; base formulation IV., 2.0 wt % component (a), 28 d): 75 | protease activity, referring to reference formulation at time 0 (Savinase Ultra 16.0L; base formulation IV., 2.0 wt % component (a), 42 d): 68 | protease activity, referring to reference formulation at time 0 (Savinase Ultra 16.0L; base formulation IV., 2.0 wt % component (a), T0): 98 | protease activity, referring to reference formulation at time 0 (Savinase Ultra 16.0L; base formulation V., 2.0 wt % component (a), 3 d): 96 | protease activity, referring to reference formulation at time 0 (Savinase Ultra 16.0L; base formulation V., 2.0 wt % component (a), 7 d): 92 | protease activity, referring to reference formulation at time 0 (Savinase Ultra 16.0L; base formulation V., 2.0 wt % component (a), 14 d): 86 | protease activity, referring to reference formulation at time 0 (Savinase Ultra 16.0L; base formulation V., 2.0 wt % component (a), 21 d): 82 | protease activity, referring to reference formulation at time 0 (Savinase Ultra 16.0L; base formulation V., 2.0 wt % component (a), 28 d): 77 | protease activity, referring to reference formulation at time 0 (Savinase Ultra 16.0L; base formulation V., 2.0 wt % component (a), 42 d): 69 | protease activity, referring to reference formulation at time 0 (Savinase Ultra 16.0L; base formulation V., 2.0 wt % component (a), T0): 100 | amylase activity, referring to reference formulation at time 0 ([1]; 3 d): 100 | amylase activity, referring to reference formulation at time 0 ([1]; 7 d): 95 | amylase activity, referring to reference formulation at time 0 ([1]; 14 d): 90 | amylase activity, referring to reference formulation at time 0 ([1]; 21 d): 83 | amylase activity, referring to reference formulation at time 0 ([1]; 28 d): 81 | amylase activity, referring to reference formulation at time 0 ([1]; 42 d): 71 | amylase activity, referring to reference formulation at time 0 ([1]; T0): 99
